pIC50: −log10 of the molar value.
Tests used:
SF-268 [1] = experiment: Cytotoxicity against human SF-268 cells by calcein AM reagent based fluorescence method; format: functional, cell-based
HCT-116 [2] = experiment: Cytotoxicity against human HCT-116 cells by cell titer-glow assay; format: functional, cell-based
SF-268 [3] = experiment: Cytotoxicity against human SF-268 cells by cell titer-glow assay; format: functional, cell-based
HCT-116 [4] = experiment: Cytotoxicity against human HCT-116 cells by calcein AM reagent based fluorescence method; format: functional, cell-based
[5] = target: T1, carboxylesterase 1 (CES1) (Homo sapiens, UniProt P23141); experiment: Substrate activity at human carboxylesterase 1 expressed in baculovirus infected Sf9 insect cells assessed as enzyme-catalysed compound cleavage incubated for 2 hrs by HPLC analysis; format: ADME; settings: read-out: Activity
T1 sequence (P23141 whole entry): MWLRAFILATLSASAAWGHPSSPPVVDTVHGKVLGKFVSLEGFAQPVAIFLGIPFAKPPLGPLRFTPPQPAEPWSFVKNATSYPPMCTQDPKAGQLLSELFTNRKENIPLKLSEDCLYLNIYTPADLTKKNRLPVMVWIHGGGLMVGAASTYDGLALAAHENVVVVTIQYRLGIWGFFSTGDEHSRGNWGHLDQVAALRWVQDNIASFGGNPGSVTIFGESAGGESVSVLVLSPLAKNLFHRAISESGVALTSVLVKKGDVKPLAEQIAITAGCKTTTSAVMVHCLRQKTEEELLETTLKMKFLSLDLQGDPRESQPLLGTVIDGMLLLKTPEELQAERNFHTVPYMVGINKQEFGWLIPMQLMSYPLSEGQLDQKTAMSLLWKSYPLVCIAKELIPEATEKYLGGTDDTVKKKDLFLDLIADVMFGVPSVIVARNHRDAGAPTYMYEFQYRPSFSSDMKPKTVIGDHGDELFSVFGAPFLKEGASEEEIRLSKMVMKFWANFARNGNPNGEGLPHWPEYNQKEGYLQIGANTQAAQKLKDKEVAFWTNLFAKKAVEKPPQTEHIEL

HeLa = experiment: Cytotoxicity against human HeLa cells after 24 to 72 hrs by Cell Titer Blue assay; format: cell-based
KB 3-1 = experiment: Antiproliferative activity against human KB-31 cells incubated for 96 hrs by spectrophotometric method; format: functional, cell-based; settings: KB 3-1, 96 h
[6] = Antiproliferative activity against human KB-8511 cells incubated for 96 hrs by spectrophotometric method; format: functional, cell-based; settings: KB-ChR-8-5-11, 96 h
Bos taurus = species on record: Bos taurus; experiment: Inhibition of bovine brain tubulin polymerization preincubated for 15 mins followed by GTP addition and measured for 30 mins by spectrophotometric method
[7] = Inhibition of calf brain tubulin by turbidimetry; design: species or system Bos taurus

## COc1cc2c(c(OC)c1OC)-c1ccc(OC)c(=O)cc1[C@@H](NC(=O)CN(OC)C1C[C@H](O)[C@H](O)CO1)CC2 (stereo not given in full)
SF-268 [1]
  pIC50: 6.52
HCT-116 [2]
  pIC50: 6.52
SF-268 [3]
  pIC50: 6.52
HCT-116 [4]
  pIC50: 6.52

## COc1cc2c(c(OC)c1OC)-c1ccc(OC)c(=O)cc1[C@@H](NC(=O)CN(OC)C1C[C@H](O)[C@H](O)[C@@H](C)O1)CC2 (stereo not given in full)
SF-268 [1]
  pIC50: 6.52
HCT-116 [2]
  pIC50: 6.52
SF-268 [3]
  pIC50: 6.52
HCT-116 [4]
  pIC50: 6.52

## COc1cc2c(c(OC)c1OC)-c1ccc(OC)c(=O)cc1[C@@H](NC(=O)CN(OC)C1O[C@@H]3OC(=O)[C@@H](O)[C@@H]3[C@@H]1O)CC2 (stereo not given in full)
SF-268 [1]
  pIC50: 6.52
HCT-116 [2]
  pIC50: 6.52
SF-268 [3]
  pIC50: 6.52
HCT-116 [4]
  pIC50: 6.52

## COc1cc2c(c(OC)c1OC)-c1ccc(NCCC(O)C(=O)N[C@H](C(=O)OC3CCCC3)c3ccccc3)c(=O)cc1[C@@H](NC(C)=O)CC2 (stereo not given in full)
[5]
  metabolised at 2 h: 0%
HeLa
  pIC50: 6.66

## COc1cc2c(c(OC)c1OC)-c1cc(NC(=O)c3ccc(CN[C@@H](CC(C)C)C(=O)OC4CCCC4)cc3)ccc1[C@@H](NC(C)=O)CC2
[5]
  metabolised at 2 h: 33%
HeLa
  pIC50: 5.83

## COc1c(COC(C)=O)c2c(c(OC)c1OC)-c1ccc(OC)c(=O)cc1[C@@H](NC(C)=O)CC2
KB 3-1
  pIC50: < 6.00
[6]
  pIC50: < 6.00
Bos taurus
  inhibition: 100%

## COc1c(CNC(C)=O)c2c(c(OC)c1OC)-c1ccc(OC)c(=O)cc1[C@@H](NC(C)=O)CC2
KB 3-1
  pIC50: < 6.00
[6]
  pIC50: < 6.00
Bos taurus
  inhibition: 0%

## CCOC(=O)NCc1c2c(c(OC)c(OC)c1OC)-c1ccc(OC)c(=O)cc1[C@@H](NC(C)=O)CC2
KB 3-1
  pIC50: < 6.00
[6]
  pIC50: < 6.00
Bos taurus
  inhibition: 0%

## COc1cc2c(c(OC)c1OC)-c1ccc(NCCCCCCCC(=O)N[C@@H](CC(C)C)C(=O)OC3CCCC3)c(=O)cc1[C@@H](NC(C)=O)CC2
[5]
  metabolised at 2 h: 76%
HeLa
  pIC50: 5.31

## COc1c(CNC(=O)c2ccccc2)c2c(c(OC)c1OC)-c1ccc(OC)c(=O)cc1[C@@H](NC(C)=O)CC2
KB 3-1
  pIC50: < 6.00
[6]
  pIC50: < 6.00
Bos taurus
  inhibition: 0%

## COc1cc2c(c(OC)c1OC)-c1ccc(OC)c(=O)cc1[C@@H](NC(=O)CN(OC)C1O[C@H](C(C)=O)[C@H](O)[C@H](O)[C@H]1O)CC2 (stereo not given in full)
SF-268 [1]
  pIC50: 6.52
HCT-116 [2]
  pIC50: 6.52
SF-268 [3]
  pIC50: 6.52
HCT-116 [4]
  pIC50: 6.52

## COc1ccc2c(c1)NC(=O)CCc1cc(OC)c(OC)c(OC)c1-2
[7]
  pIC50: 4.68

## COc1ccc2c(c1)/C(=N\O)CCc1cc(OC)c(OC)c(OC)c1-2
[7]
  pIC50: 6.48

## COc1ccc2c(c1)C(=O)CCc1cc(OC)c(OC)c(OC)c1-2
[7]
  pIC50: 6.37

## COc1cc2c(c(OC)c1OC)-c1ccc(OC)c(=O)cc1[C@@H](NC(=O)CN(OC)C1C[C@@H](O)[C@@H](O)CO1)CC2 (stereo not given in full)
SF-268 [1]
  pIC50: 6.52
HCT-116 [2]
  pIC50: 6.52
SF-268 [3]
  pIC50: 6.52
HCT-116 [4]
  pIC50: 6.52

## COc1cc2c(c(OC)c1OC)-c1ccc(NCCCCCC(=O)N[C@@H](CC(C)C)C(=O)OC3CCCC3)c(=O)cc1[C@@H](NC(C)=O)CC2
[5]
  metabolised at 2 h: 36%
HeLa
  pIC50: 5.34

## COc1cc2c(c(OC)c1OC)-c1ccc(NCCCC(=O)N[C@@H](CC(C)C)C(=O)OC3CCCC3)c(=O)cc1[C@@H](NC(C)=O)CC2
[5]
  metabolised at 2 h: 18%
HeLa
  pIC50: 5.92

## COc1ccc2c(c1)-c1n[nH]cc1Cc1cc(OC)c(OC)c(OC)c1-2
[7]
  pIC50: 6.33

## COc1c(CN(C)C(C)=O)c2c(c(OC)c1OC)-c1ccc(OC)c(=O)cc1[C@@H](NC(C)=O)CC2
KB 3-1
  pIC50: < 6.00
[6]
  pIC50: < 6.00
Bos taurus
  inhibition: 0%

## COc1ccc2c(c1)-c1nc(N)ncc1Cc1cc(OC)c(OC)c(OC)c1-2
[7]
  pIC50: 6.17

## COc1ccc2c(c1)N(C(C)=O)CCCc1cc(OC)c(OC)c(OC)c1-2
[7]
  pIC50: 5.64

## COc1c(CO)c2c(c(OC)c1OC)-c1ccc(OC)c(=O)cc1[C@@H](NC(C)=O)CC2
[6]
  pIC50: < 6.00
Bos taurus
  inhibition: 100%

## COc1cc2c(c(OC)c1OC)-c1ccc(NCCCC(=O)N[C@H](C(=O)OC3CCCC3)c3ccccc3)c(=O)cc1[C@@H](NC(C)=O)CC2
[5]
  metabolised at 2 h: 0%
HeLa
  pIC50: 5.91
